Test results as given in paper PMC8913315, “Comparison of glycoside hydrolase family 3 β-xylosidases from basidiomycetes and ascomycetes reveals evolutionarily distinct xylan degradation systems” (The Journal of Biological Chemistry, 2022).

What was measured:
PcBxl3 = target: T1, PcBxl3 (Phanerodontia chrysosporium, UniProt Z9K6S9QQP9); experiment: X-ray crystal structure, […] Å; type: binding; conditions: crystal soaked briefly in 100 mM xylobiose, 40% PEG 400; Endo H deglycosylated; subsite -1
T1 construct: cDNA from strain K-3, pPICZalpha A, secreted from Pichia pastoris KM71H; 743 residues; glycosylated, Endo H treated for crystals; monomer in asymmetric unit
T1 sequence (Z9K6S9QQP9 1-743): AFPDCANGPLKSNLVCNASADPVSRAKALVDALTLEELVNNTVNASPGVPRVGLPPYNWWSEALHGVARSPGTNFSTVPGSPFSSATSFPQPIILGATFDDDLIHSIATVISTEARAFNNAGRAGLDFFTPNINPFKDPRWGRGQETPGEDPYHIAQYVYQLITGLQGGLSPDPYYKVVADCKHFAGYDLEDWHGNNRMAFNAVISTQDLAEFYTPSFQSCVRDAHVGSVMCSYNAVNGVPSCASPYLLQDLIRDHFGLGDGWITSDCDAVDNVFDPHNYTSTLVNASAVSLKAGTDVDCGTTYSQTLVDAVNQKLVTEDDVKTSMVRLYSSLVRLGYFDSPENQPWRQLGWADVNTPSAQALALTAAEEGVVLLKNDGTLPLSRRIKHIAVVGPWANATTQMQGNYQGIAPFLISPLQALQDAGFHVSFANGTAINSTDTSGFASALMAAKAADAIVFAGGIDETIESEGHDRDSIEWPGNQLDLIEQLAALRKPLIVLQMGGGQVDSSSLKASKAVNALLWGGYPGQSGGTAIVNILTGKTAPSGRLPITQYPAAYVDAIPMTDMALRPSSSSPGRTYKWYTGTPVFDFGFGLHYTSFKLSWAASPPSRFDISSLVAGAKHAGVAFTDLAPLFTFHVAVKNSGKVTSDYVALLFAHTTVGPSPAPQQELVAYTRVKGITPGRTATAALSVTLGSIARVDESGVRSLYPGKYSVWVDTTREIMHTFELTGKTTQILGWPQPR

TrXyl3A = target: T2, TrXyl3A (Trichoderma reesei, UniProt Q92458); experiment: X-ray crystal structure, […] Å; type: binding; conditions: crystal soaked 1 h with 14 mM 4-thioxylobiose, pH 7.0; subsites -1 and +1
T2 construct: gene bxl1; kinetics: synthetic gene codon-optimized, pPICZalpha A, secreted from Pichia pastoris KM71H; crystals: protein gift from DuPont Industrial Bioscience; 777 residues; dimer in asymmetric unit
T2 sequence (Q92458 entry or part of it): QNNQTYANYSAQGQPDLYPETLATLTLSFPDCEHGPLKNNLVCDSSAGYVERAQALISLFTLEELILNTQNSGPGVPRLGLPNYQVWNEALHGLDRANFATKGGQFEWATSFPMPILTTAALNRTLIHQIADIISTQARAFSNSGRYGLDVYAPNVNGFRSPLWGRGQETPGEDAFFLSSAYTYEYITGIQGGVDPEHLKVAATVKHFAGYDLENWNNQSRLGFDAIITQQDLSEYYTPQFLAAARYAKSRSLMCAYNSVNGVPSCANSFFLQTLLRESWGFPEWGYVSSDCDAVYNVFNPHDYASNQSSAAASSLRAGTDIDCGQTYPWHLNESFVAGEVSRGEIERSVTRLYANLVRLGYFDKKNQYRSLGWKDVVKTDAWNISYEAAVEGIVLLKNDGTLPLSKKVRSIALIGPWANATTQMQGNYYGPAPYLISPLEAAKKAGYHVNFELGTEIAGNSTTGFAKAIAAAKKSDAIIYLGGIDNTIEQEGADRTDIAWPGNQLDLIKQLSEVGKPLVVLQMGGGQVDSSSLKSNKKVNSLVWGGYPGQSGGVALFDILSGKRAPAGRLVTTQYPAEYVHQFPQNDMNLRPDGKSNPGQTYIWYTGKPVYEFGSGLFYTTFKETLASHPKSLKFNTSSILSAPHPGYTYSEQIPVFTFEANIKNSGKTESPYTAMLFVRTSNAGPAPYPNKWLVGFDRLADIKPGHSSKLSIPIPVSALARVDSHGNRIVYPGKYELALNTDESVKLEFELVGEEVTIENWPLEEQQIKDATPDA

Structure (SMILES)	X-ray crystal structure, 3.08 Å (PcBxl3)	X-ray crystal structure, 2.1 Å (TrXyl3A)
OC1OC[C@@H](O)[C@H](O)[C@H]1O (some centres unmarked) [X, xylose]	The structure of PcBxl3 with xylose bound in the catalytic center was also determined	–
OC1OC[C@@H](S[C@@H]2OC[C@@H](O)[C@H](O)[C@H]2O)[C@H](O)[C@H]1O (some centres unmarked) [4-thioxylobiose]	–	The crystal structure of TrXyl3A bound with thioxylobiose was determined by molecular replacement
